ChEMBL document CHEMBL4371005, “Overview of the Development of DprE1 Inhibitors for Combating the Menace of Tuberculosis” (J Med Chem, 2018)
≈ marks a conversion by molar mass, not a printed value.

What was measured:
[1] = tested on: Mycobacterium tuberculosis; experiment: Antimycobacterial activity against Mycobacterium tuberculosis after 5 days by turbidity assay; assay type: functional; settings: 120 h
[2] = tested on: Mycobacterium tuberculosis; experiment: Antimycobacterial activity against GFP-fused Mycobacterium tuberculosis H37Rv by resazurin dye-based micro-broth dilution method; assay type: functional
[3] = tested on: Mycobacterium tuberculosis; experiment: Antimycobacterial activity against GFP-fused Mycobacterium tuberculosis H37Rv after 7 days by fluorescence assay; assay type: functional; settings: 168 h
[4] = target: T1, Decaprenylphosphoryl-beta-D-ribose oxidase (Mycobacterium tuberculosis (strain ATCC 25618 / H37Rv), UniProt P9WJF1); experiment: Inhibition of Mycobacterium tuberculosis H37Rv DprE1
T1 sequence (P9WJF1 whole entry): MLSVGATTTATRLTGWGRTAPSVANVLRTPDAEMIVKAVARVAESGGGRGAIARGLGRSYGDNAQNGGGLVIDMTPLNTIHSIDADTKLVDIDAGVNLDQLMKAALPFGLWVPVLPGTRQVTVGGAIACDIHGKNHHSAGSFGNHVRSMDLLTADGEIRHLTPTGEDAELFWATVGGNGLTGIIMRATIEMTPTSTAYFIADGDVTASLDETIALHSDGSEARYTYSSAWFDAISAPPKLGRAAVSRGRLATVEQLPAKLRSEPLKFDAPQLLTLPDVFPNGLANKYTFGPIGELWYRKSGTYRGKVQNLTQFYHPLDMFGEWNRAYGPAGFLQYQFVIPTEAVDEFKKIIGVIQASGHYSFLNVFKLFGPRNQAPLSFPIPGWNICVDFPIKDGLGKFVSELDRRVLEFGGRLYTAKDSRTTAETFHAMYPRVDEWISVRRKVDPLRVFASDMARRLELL

[5] = tested on: Mycobacterium tuberculosis; experiment: Antimycobacterial activity against Mycobacterium tuberculosis H37Rv after overnight incubation by REMA method; assay type: functional
[6] = tested on: Mycobacterium tuberculosis; experiment: Antimycobacterial activity against Mycobacterium tuberculosis H37Rv after 24 hrs by REMA method; assay type: functional
[7] = tested on: Mycobacterium tuberculosis; experiment: Antimycobacterial activity against recombinant GFP-fused Mycobacterium tuberculosis H37Rv after 10 days by resazurin dye-based assay; assay type: functional; settings: 240 h
[8] = tested on: Mycobacterium tuberculosis; experiment: Bactericidal activity against recombinant GFP-fused Mycobacterium tuberculosis H37Rv by resazurin dye-based assay; assay type: functional
[9] = tested on: Mycobacterium tuberculosis; experiment: Antimycobacterial activity against Mycobacterium tuberculosis H37Rv infected in C57BL/6 mouse primary macrophages assessed as reduction in colony forming unit at 5 uM after 2 hrs followed by compound wash out and measured after 7 days by serial dilution method relative to control; assay type: functional
[10] = tested on: Mycobacterium tuberculosis; experiment: Antimycobacterial activity against Mycobacterium tuberculosis H37Rv infected in human primary macrophages assessed as reduction in colony forming unit at 5 uM after 2 hrs followed by compound wash out and measured after 7 days by serial dilution method relative to control; assay type: functional
[11] = target: T2, Decaprenylphosphoryl-beta-D-ribose oxidase (Mycobacterium tuberculosis (strain ATCC 25618 / H37Rv)) (UniProt P9WJF1); experiment: Inhibition of GFP-fused Mycobacterium tuberculosis H37Rv DprE1 after 72 hrs by fluorescence assay
T2 sequence (whole entry): T1 sequence (P9WJF1 whole entry)

[12] = target: T1, Decaprenylphosphoryl-beta-D-ribose oxidase; experiment: Inhibition of Mycobacterium tuberculosis H37Rv DprE1 using FPR as substrate preincubated for 6.5 hrs followed by substrate addition by resazurin dye-based spectrofluorimetric analysis
[13] = target: T2, Decaprenylphosphoryl-beta-D-ribose oxidase (Mycobacterium tuberculosis (strain ATCC 25618 / H37Rv)); experiment: Ratio of IC50 for inhibition of Mycobacterium tuberculosis H37Rv DprE1 using FPR as substrate in presence of SAM by resazurin dye-based spectrofluorimetric analysis to IC50 for inhibition of Mycobacterium tuberculosis H37Rv DprE1 using FPR as substrate in absence of SAM by resazurin dye-based spectrofluorimetric analysis
[14] = Inhibition of Mycobacterium tuberculosis DprE1 using FPR as substrate by resazurin dye-based fluorescence assay
[15] = Binding affinity to Mycobacterium tuberculosis DprE1
[16] = target: T2, Decaprenylphosphoryl-beta-D-ribose oxidase (Mycobacterium tuberculosis (strain ATCC 25618 / H37Rv)); experiment: Inhibition of Mycobacterium tuberculosis H37Rv DprE1 at 50 uM relative to control
[17] = target: T1, Decaprenylphosphoryl-beta-D-ribose oxidase; experiment: Inhibition of N-terminal His6-thioredoxin tagged Mycobacterium tuberculosis H37Rv DprE1 expressed in Escherichia coli BL21(DE3) using FPR as substrate by resazurin dye-based fluorescence assay
Cytochrome P450 2C9 = Cytochrome P450 2C9 (Homo sapiens, UniProt P11712); experiment: Inhibition of CYP2C9 in human liver microsomes using diclofenac as substrate after 30 mins by in presence of NADPH by LC-MS/MS analysis; assay type: ADME
Cytochrome P450 2C9, sequence (P11712 whole entry): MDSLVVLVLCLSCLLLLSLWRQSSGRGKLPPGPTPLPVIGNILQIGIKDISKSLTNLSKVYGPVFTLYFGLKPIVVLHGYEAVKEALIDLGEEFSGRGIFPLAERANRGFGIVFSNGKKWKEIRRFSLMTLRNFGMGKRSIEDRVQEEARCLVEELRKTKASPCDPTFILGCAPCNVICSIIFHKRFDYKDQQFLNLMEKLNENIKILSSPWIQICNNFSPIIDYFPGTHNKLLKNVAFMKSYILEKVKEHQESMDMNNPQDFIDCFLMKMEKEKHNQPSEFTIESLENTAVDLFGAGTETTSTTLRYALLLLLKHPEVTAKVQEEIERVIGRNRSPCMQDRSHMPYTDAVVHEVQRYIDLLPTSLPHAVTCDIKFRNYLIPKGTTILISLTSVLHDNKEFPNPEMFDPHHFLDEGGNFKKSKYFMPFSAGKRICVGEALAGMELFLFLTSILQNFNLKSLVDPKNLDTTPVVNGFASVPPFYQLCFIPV

[18] = tested on: Mycobacterium tuberculosis; experiment: Antimycobacterial activity against Mycobacterium tuberculosis in biofilm medium; assay type: functional, organism-based
[19] = tested on: Mycobacterium tuberculosis; experiment: Antimycobacterial activity against Mycobacterium tuberculosis in 7H9 medium; assay type: functional, organism-based

Cc1ccc(C(F)(F)F)cc1CNCc1cc2c(C)nn(-c3ccccc3)c2[nH]c1=O
MIC [1]: 0.8 µM (≈ 0.341 µg/mL)

C[C@H]1COC2(CCN(c3nc(=O)c4cc(C(F)(F)F)cc([N+](=O)[O-])c4s3)CC2)O1 [BTZ-043]
MIC [2]: 0.001 µg/mL (≈ 0.00232 µM)

O=C(NCCOc1ccccc1F)c1cc([N+](=O)[O-])cc([N+](=O)[O-])c1
MIC [3]: 0.7 µM (≈ 0.244 µg/mL)

O=C(O)c1nc2ccc(C(F)(F)F)cc2nc1NCc1ccc(C(F)(F)F)cc1
IC50 [4]: 120 nM | MIC99 [5]: 6.3 µM (≈ 2.62 µg/mL)

N#Cc1ccc(CNc2nc3cc(C(F)(F)F)ccc3nc2C(=O)O)cc1
IC50 [4]: 67 nM | MIC99 [5]: 50 µM (≈ 18.6 µg/mL)

COc1ccc(O[C@H]2CCN(C(=O)c3cc([N+](=O)[O-])cc([N+](=O)[O-])c3)C2)cc1
MIC [3]: 20 µM (≈ 7.75 µg/mL)

Cc1nc2cc(C(F)(F)F)cc([N+](=O)[O-])c2nc1-c1ccccc1
MIC [5]: 0.75 µM (≈ 0.25 µg/mL)

Nc1cc(C(=O)NCCOCc2cccc(Cl)c2)cc([N+](=O)[O-])c1
MIC [3]: > 20 µM

Cc1ccc(C)n1-c1cc(C(F)(F)F)cc2c(=O)nc(N3CCC4(CC3)OC[C@H](C)O4)sc12
MIC [6]: 2.5 µg/mL (≈ 5.21 µM)

CCc1nc2cc(Cl)ccn2c1C(=O)NCc1ccc(N2CCN(c3ccc(F)cc3)CC2)cc1
MIC [7]: 0.017 µM | IC50 [4]: > 10000 nM | MBC [8]: > 200 µM

COc1ccc(CNc2nc3cc(C(F)(F)F)ccc3nc2C(=O)O)cc1F
IC50 [4]: 80 nM | MIC99 [5]: 6.3 to 12.5 µM (≈ 2.49 to 4.94 µg/mL)

COc1ccc(OCCNC(=O)c2cc([N+](=O)[O-])cc([N+](=O)[O-])c2)cc1
MIC [3]: 0.2 µM (≈ 0.0723 µg/mL) | fold change (FC) [9]: 10 | fold change (FC) [10]: 10

O=C(NCCOCc1cccc(Cl)c1)c1cc([N+](=O)[O-])cc([N+](=O)[O-])c1
MIC [3]: 1 µM (≈ 0.38 µg/mL)

Cc1nc2cc(Br)cc([N+](=O)[O-])c2nc1-c1ccccc1
MIC [5]: 3.1 µM (≈ 1.07 µg/mL)

CC(C)(C)c1ccc(Cn2cnc([N+](=O)[O-])n2)cc1
IC90 [11]: 500 nM

NNC(=O)c1ccncc1 [ISONIAZID]
MIC [2]: 20 to 200 µg/mL (≈ 146 to 1460 µM)

O=C(O)c1nc2ccc(C(F)(F)F)cc2nc1NCc1ccc(Cl)cc1
IC50 [4]: 50 nM | MIC99 [5]: 3.1 µM (≈ 1.18 µg/mL)

Cc1c(CCC(=O)N2CCCC2)c(=O)n2c([nH]c3ccccc32)c1C#N
IC50 [12]: 70 nM | Ratio IC50 [13]: 36

O=C(NCCOCc1cccc(C(F)(F)F)c1)c1cc([N+](=O)[O-])cc([N+](=O)[O-])c1
MIC [3]: 0.2 µM (≈ 0.0827 µg/mL)

CC[C@@H](CO)NCCN[C@@H](CC)CO [ETHAMBUTOL]
MIC [2]: 1000 to 5000 µg/mL (≈ 4890 to 24500 µM)

O=C(C1CCN(c2nnc(-n3cccc3)s2)CC1)N1CCC(Cc2ccccc2)CC1
IC50 [14]: 54 nM | Kd [15]: 250 nM

CCOC(=O)c1nc2ccc(C(F)(F)F)cc2nc1NCc1ccc(OC)cc1
inhibition [16]: 54% | MIC99 [5]: 3.1 µM (≈ 1.26 µg/mL)

O=C(NCCOCc1cccc(Cl)c1)c1cccc([N+](=O)[O-])c1
MIC [3]: > 20 µM

COc1ccc(CNc2nc3cc(C(F)(F)F)ccc3nc2C(=O)O)cc1
IC50 [4]: 41 nM | MIC99 [5]: 3.1 µM (≈ 1.17 µg/mL)

COc1ccc(O[C@H]2CCCN(C(=O)c3cc([N+](=O)[O-])cc([N+](=O)[O-])c3)C2)cc1
MIC [3]: 20 µM (≈ 8.03 µg/mL)

Cc1nc2c([N+](=O)[O-])cc(C(F)(F)F)cc2nc1-c1ccccc1
MIC [5]: 6.25 µM (≈ 2.08 µg/mL)

O=C(NCCOCc1ccccc1F)c1cc([N+](=O)[O-])cc([N+](=O)[O-])c1
MIC [3]: 0.08 µM (≈ 0.0291 µg/mL)

CCOC(=O)NC(=O)c1ccsc1NC(=O)c1ccn2cnnc2c1
IC50 [17]: 60 nM

Cc1ccc(C(F)(F)F)cc1CNCc1cc2c(C3CC3)nn(-c3ccccc3)c2[nH]c1=O
MIC [1]: 0.1 µM (≈ 0.0452 µg/mL)

COC(=O)c1ccc(O[C@H]2CCN(C(=O)c3cc([N+](=O)[O-])cc([N+](=O)[O-])c3)C2)cc1
MIC [3]: > 20 µM

O=C(NCCOCc1ccccc1)c1cc([N+](=O)[O-])cc([N+](=O)[O-])c1
MIC [3]: 0.2 µM (≈ 0.0691 µg/mL)

CCCCN1CCN(c2nc(=O)c3cc(C(F)(F)F)cc(-n4cccc4)c3s2)CC1
MIC [6]: 0.62 µg/mL (≈ 1.42 µM)

O=C(NCCOCc1cccc(Cl)c1)c1cc(NO)cc([N+](=O)[O-])c1
MIC [3]: > 20 µM

O=C(O)c1nc2ccc(C(F)(F)F)cc2nc1NCc1ccc(F)cc1
IC50 [4]: 72 nM | MIC99 [5]: 12.5 µM (≈ 4.57 µg/mL)

Cc1ccnc(NC(=O)c2ccsc2NC(=O)c2ccn3cnnc3c2)n1
IC50 [17]: 30 nM | IC50 (Cytochrome P450 2C9): > 50000 nM

O=c1nc(N2CCN(CC3CCCCC3)CC2)sc2c(-n3cccc3)cc(C(F)(F)F)cc12
MIC [6]: 0.16 µg/mL (≈ 0.336 µM)

C[C@H]1COC2(CCN(c3nc(=O)c4cc(C(F)(F)F)cc(-n5cccc5)c4s3)CC2)O1
MIC [6]: 0.16 µg/mL (≈ 0.354 µM)

CCOc1ccc(CNc2nc3cc(C(F)(F)F)ccc3nc2C(=O)O)cc1
IC50 [4]: 88 nM | MIC99 [5]: 3.1 µM (≈ 1.21 µg/mL)

CCOC(=O)NC(=O)c1ccsc1NC(=O)c1nc2ccccc2s1
IC50 [18]: 0.01 µg/mL (≈ 0.0266 µM) | IC50 [19]: 0.19 µg/mL (≈ 0.506 µM)

Cc1ccc(C(F)(F)F)cc1CNCc1cc2c(C(C)C)nn(-c3ccccc3)c2[nH]c1=O
MIC [1]: 0.4 µM (≈ 0.182 µg/mL)
